Several values for one entry are separate records, joined by “and”; a condition that tells them apart may be missing. Equal values may be shown once. Inconclusive results and toxic doses are left out. No stated cut-off is given here; in the data, active means T/C of 150% or more; inactive means T/C below 125%.
Test system: L1210 leukemia ip in BDF1 mice, survival T/C
Assay: NCI In Vivo Anticancer Drug Screen. Data for tumor model L1210 Leukemia (intraperitoneal) in B6D2F1 (BDF1) mice
Settings: endpoint: mean survival time, higher = longer survival
Method in brief: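 Mice bearing the transplanted tumor received compound or vehicle. Survival of the treated group was divided by that of the vehicle-treated control group to give the ratio.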

[1] = dose: 80.0 mg/kg/injection, schedule: Q04DX003 (ip), vehicle: Klucel (hydroxypropylcellulose) (HPC)
[2] = dose: 100.0 mg/kg/injection, schedule: Q04DX003 (ip), vehicle: Klucel (hydroxypropylcellulose) (HPC)
[3] = dose: 100.0 mg/kg/injection, schedule: Q01DX001 (ip), vehicle: saline
[4] = dose: 200.0 mg/kg/injection, schedule: Q01DX001 (ip), vehicle: saline
[5] = dose: 400.0 mg/kg/injection, schedule: Q01DX001 (ip), vehicle: saline
[6] = dose: 25.0 mg/kg/injection, schedule: Q04DX002 (ip), vehicle: Klucel (hydroxypropylcellulose) (HPC)
[7] = dose: 50.0 mg/kg/injection, schedule: Q04DX002 (ip), vehicle: Klucel (hydroxypropylcellulose) (HPC)
[8] = dose: 100.0 mg/kg/injection, schedule: Q04DX002 (ip), vehicle: Klucel (hydroxypropylcellulose) (HPC)
[9] = dose: 100.0 mg/kg/injection, schedule: Q04DX003 (ip), vehicle: saline
[10] = dose: 200.0 mg/kg/injection, schedule: Q04DX003 (ip), vehicle: saline
[11] = dose: 400.0 mg/kg/injection, schedule: Q04DX003 (ip), vehicle: saline
[12] = dose: 12.5 mg/kg/injection, schedule: Q01DX009 (ip), vehicle: saline
[13] = dose: 25.0 mg/kg/injection, schedule: Q01DX009 (ip), vehicle: saline
[14] = dose: 25.0 mg/kg/injection, schedule: Q04DX003 (ip), vehicle: saline
[15] = dose: 50.0 mg/kg/injection, schedule: Q04DX003 (ip), vehicle: saline
[16] = dose: 100.0 mg/kg/injection, schedule: Q01DX009 (ip), vehicle: saline with Tween-80
[17] = dose: 200.0 mg/kg/injection, schedule: Q01DX009 (ip), vehicle: saline with Tween-80
[18] = dose: 100.0 mg/kg/injection, schedule: Q04DX003 (ip), vehicle: saline with Tween-80
[19] = dose: 200.0 mg/kg/injection, schedule: Q04DX003 (ip), vehicle: saline with Tween-80

Measured: T/C

Cc1cc(N(CCOS(C)(=O)=O)CCOS(C)(=O)=O)ccc1C=Nc1cccc(Br)c1
inactive: dose: 20.0 mg/kg/injection, schedule: Q04DX003 (ip), vehicle: Klucel (hydroxypropylcellulose) (HPC) 110 % of control | dose: 40.0 mg/kg/injection, schedule: Q04DX003 (ip), vehicle: Klucel (hydroxypropylcellulose) (HPC) 121 % of control | [1] 98 % of control | [2] 120 % of control

Cc1cn([C@@H]2C[C@H](CO)[C@@H](O)C2)c(=O)[nH]c1=O
inactive: [3] 105 % of control | [4] 110 % of control | [5] 107 % of control

O=C(OCc1ccccc1CN1CCOCC1)c1cccc(Br)c1
inactive: [6] 93 % of control | [7] 95 % of control and 108 % of control | [8] 108 % of control | dose: 200.0 mg/kg/injection, schedule: Q04DX002 (ip), vehicle: Klucel (hydroxypropylcellulose) (HPC) 108 % of control and 92 % of control

CN(C)C(SCc1c(Cl)c(Cl)c(Cl)c(Cl)c1Cl)=[N+](C)C
inactive: dose: 3.0 mg/kg/injection, schedule: Q04DX002 (ip), vehicle: saline 101 % of control | dose: 6.0 mg/kg/injection, schedule: Q04DX002 (ip), vehicle: saline 93 % of control | dose: 12.0 mg/kg/injection, schedule: Q04DX002 (ip), vehicle: saline 104 % of control

CCOC(CCc1cnc[nH]c1=O)OCC
inactive: [9] 106 % of control | [10] 97 % of control | [11] 93 % of control

CCCCC(OC(C)=O)C(OC(C)=O)C(COC(C)=O)NC(C)=O (centres undefined)
inactive: dose: 100.0 mg/kg/injection, schedule: Q04DX002 (ip), vehicle: other 103 % of control | dose: 200.0 mg/kg/injection, schedule: Q04DX002 (ip), vehicle: other 97 % of control | dose: 400.0 mg/kg/injection, schedule: Q04DX002 (ip), vehicle: other 110 % of control

O=c1c(-c2ccccc2)c(-c2ccccc2)n2n1C1C=CC2C1 (centres undefined)
inactive: dose: 100.0 mg/kg/injection, schedule: Q01DX001 (ip), vehicle: carboxymethylcellulose (CMC) 96 % of control | dose: 200.0 mg/kg/injection, schedule: Q01DX001 (ip), vehicle: carboxymethylcellulose (CMC) 96 % of control | dose: 400.0 mg/kg/injection, schedule: Q01DX001 (ip), vehicle: carboxymethylcellulose (CMC) 96 % of control

O=C(OCCOCCN1CCCCC1)N1c2ccccc2Sc2cccnc21
inactive: dose: 5.0 mg/kg/injection, schedule: Q01DX001 (ip), vehicle: saline 104 % of control | dose: 6.25 mg/kg/injection, schedule: Q01DX009 (ip), vehicle: saline 102 % of control | dose: 10.0 mg/kg/injection, schedule: Q01DX001 (ip), vehicle: saline 101 % of control | [12] 107 % of control | dose: 20.0 mg/kg/injection, schedule: Q01DX001 (ip), vehicle: saline 98 % of control | [13] 103 % of control | [14] 106 % of control | dose: 40.0 mg/kg/injection, schedule: Q01DX001 (ip), vehicle: saline 101 % of control | dose: 50.0 mg/kg/injection, schedule: Q01DX009 (ip), vehicle: saline 101 % of control | [15] 111 % of control | dose: 80.0 mg/kg/injection, schedule: Q01DX001 (ip), vehicle: saline 101 % of control | [3] 98 % of control | [9] 106 % of control

C=COC(=O)N1CCCC1C(=O)O (centres undefined)
inactive: [3] 92 % of control | [4] 94 % of control | [5] 90 % of control

O=C(O)C(O)c1cccc2ccccc12 (centres undefined)
inactive: [16] 100 % of control | [17] 100 % of control

CC1C[N-]CC(C)C1.CC1C[N-]CC(C)C1.[Cl][Pt+2]([Cl])([Cl])[Cl] (centres undefined)
inactive: [12] 107 % of control | dose: 12.5 mg/kg/injection, schedule: Q04DX003 (ip), vehicle: saline 87 % of control | [13] 102 % of control | [14] 87 % of control | [15] 95 % of control and 106 % of control | [9] 91 % of control

O=C(OCc1ccccc1CN1CCCCC1)c1ccc(Cl)cc1
inactive: [6] 102 % of control | [7] 105 % of control | [8] 107 % of control

CS(=O)(=O)OCCN(CCOS(C)(=O)=O)c1ccc(C=Nc2cccc(C(=O)O)c2)cc1
inactive: dose: 2.5 mg/kg/injection, schedule: Q04DX003 (ip), vehicle: Klucel (hydroxypropylcellulose) (HPC) 111 % of control | dose: 5.0 mg/kg/injection, schedule: Q04DX003 (ip), vehicle: Klucel (hydroxypropylcellulose) (HPC) 120 % of control | [1] 91 % of control

O=[N+]([O-])c1cc[n+]([O-])c2sccc12
inactive: [18] 100 % of control | [19] 109 % of control | dose: 400.0 mg/kg/injection, schedule: Q04DX003 (ip), vehicle: saline with Tween-80 108 % of control

Cc1cc(NC(=O)c2ccccc2)c(Cl)cc1N
inactive: dose: 50.0 mg/kg/injection, schedule: Q01DX009 (ip), vehicle: saline with Tween-80 105 % of control | dose: 50.0 mg/kg/injection, schedule: Q04DX003 (ip), vehicle: saline with Tween-80 94 % of control | [16] 98 % of control | [18] 98 % of control | [17] 93 % of control | [19] 93 % of control

O=C(O)/C=C/S(=O)(=O)c1ccc(Cl)cc1
inactive: dose: 12.5 mg/kg/injection, schedule: Q04DX002 (ip), vehicle: Klucel (hydroxypropylcellulose) (HPC) 101 % of control | dose: 25.0 mg/kg/injection, schedule: Q01DX009 (ip), vehicle: Klucel (hydroxypropylcellulose) (HPC) 97 % of control | [6] 97 % of control | dose: 50.0 mg/kg/injection, schedule: Q01DX009 (ip), vehicle: Klucel (hydroxypropylcellulose) (HPC) 97 % of control | [7] 108 % of control | [8] 95 % of control

COC(=O)Cc1ccc([N+](=O)[O-])cc1[N+](=O)[O-]
inactive: [9] 101 % of control | [10] 102 % of control | [11] 93 % of control

CCOC(=O)CC(=O)c1ccc(OCCOc2ccc(C(C)(C)CC(C)(C)C)cc2)cc1
inactive: dose: 100.0 mg/kg/injection, schedule: Q01DX009 (ip), vehicle: Klucel (hydroxypropylcellulose) (HPC) 95 % of control | [2] 89 % of control | dose: 200.0 mg/kg/injection, schedule: Q01DX009 (ip), vehicle: Klucel (hydroxypropylcellulose) (HPC) 97 % of control | dose: 200.0 mg/kg/injection, schedule: Q04DX003 (ip), vehicle: Klucel (hydroxypropylcellulose) (HPC) 96 % of control | dose: 400.0 mg/kg/injection, schedule: Q01DX009 (ip), vehicle: Klucel (hydroxypropylcellulose) (HPC) 87 % of control | dose: 400.0 mg/kg/injection, schedule: Q04DX003 (ip), vehicle: Klucel (hydroxypropylcellulose) (HPC) 86 % of control

C/C(=N/NC(N)=S)c1ccc(Cl)cc1
inactive: dose: 5.0 mg/kg/injection, schedule: Q01DX001 (ip), vehicle: other 105 % of control | dose: 10.0 mg/kg/injection, schedule: Q01DX001 (ip), vehicle: other 111 % of control

— PubChem BioAssay AID248 (DTP/NCI, 2004)
